Reference: ChEMBL document CHEMBL1131305, “1-[2(R)-(2-amino-2-methylpropionylamino)-3-(1H-indol-3-yl)propionyl]- 3-benzylpiperidine-3(S)-carboxylic acid ethyl ester (L-163,540): a potent, orally bioavailable, and short-duration growth hormone secretagogue” (J Med Chem, 1998)
pEC50: −log10 of the molar value. Blank lines part the entries; values can stand above or below the molecule they belong to.

Tests used:
Rattus norvegicus = organism: Rattus norvegicus; experiment: Effective concentration for half-maximal release of growth hormone determined in the rat pituitary cell assay, normalized against standard L692,429 (60 nM).; type: functional; conditions: Pituitary gland cell
[1] = Bioavailability in dogs at 3.8 mg/kg oral dose.; type: ADME, organism-based, Canis lupus familiaris; conditions: dog, in vivo
[2] = Half-life determined at 5.5 mg/kg, iv, in rat; type: ADME, organism-based; parameters: dose 5.5 mg/kg; conditions: in vivo
[3] = Maximum plasma concentration following oral administration of 26.3 mg/kg in rats; type: ADME, organism-based; parameters: dose 26.3 mg/kg, route oral; conditions: rat
[4] = Clearance rate at 0.46 mg/kg, iv, in dogs; type: ADME, organism-based, Canis lupus familiaris; parameters: dose 0.46 mg/kg; conditions: dog, in vivo
[5] = Volume of distribution was determined in rat at 5.5 mg/kg, iv; type: ADME, organism-based; parameters: dose 5.5 mg/kg, route intravenous; conditions: in vivo, read-out: Vdss
[6] = Half-life determined at 0.46 mg/kg, iv, in dogs; type: ADME, organism-based, Canis lupus familiaris; parameters: dose 0.46 mg/kg; conditions: dog, in vivo
[7] = Clearance rate at 5.5 mg/kg, iv, in rat; type: ADME, organism-based; parameters: dose 5.5 mg/kg; conditions: in vivo
[8] = Bioavailability in rats at 26.3 mg/kg oral dose.; type: ADME, organism-based; conditions: rat, in vivo
[9] = Maximum plasma concentration following oral administration of 3.8 mg/kg in Beagle dog; type: ADME, organism-based, Canis lupus familiaris; parameters: dose 3.8 mg/kg, route oral
[10] = Volume of distribution was determined in dogs at 0.46 mg/kg, iv; type: ADME, organism-based, Canis lupus familiaris; parameters: dose 0.46 mg/kg, route intravenous; conditions: dog, in vivo, read-out: Vdss

Compound: CCOC(=O)[C@]1(Cc2ccccc2)CCN(C(=O)[C@@H](Cc2c[nH]c3ccccc23)NC(=O)C(C)(C)N)C1
pEC50 (Rattus norvegicus): < 7.30

Compound: CCOC(=O)[C@]1(Cc2ccccc2)CCCN(C(=O)[C@@H](Cc2c[nH]c3ccccc23)NC(=O)C(C)N)C1 (stereo partly drawn)
pEC50 (Rattus norvegicus): 8.22

bioavailability [1]: 29%
half-life [2]: 24 min
Cmax [3]: 182 ng/mL
clearance [4]: 23 mL/min/kg
Vd [5]: 2.7 L/kg
half-life [6]: 72 min
clearance [7]: 206 mL/min/kg
bioavailability [8]: 12.1%
Cmax [9]: 560 ng/mL
Vd [10]: 1.3 L/kg
Compound: CCOC(=O)[C@]1(Cc2ccccc2)CCCN(C(=O)[C@@H](Cc2c[nH]c3ccccc23)NC(=O)C(C)(C)N)C1

Compound: CC(C)(N)C(=O)N[C@H](Cc1c[nH]c2ccccc12)C(=O)N1CCC[C@@](Cc2ccccc2)(C(=O)O)C1
pEC50 (Rattus norvegicus): 6.72

Compound: CCOC(=O)[C@]1(Cc2ccccc2)CCCN(C(=O)[C@@H](COCc2ccccc2)NC(=O)C(C)(C)N)C1
pEC50 (Rattus norvegicus): 7.70

Compound: CCOC(=O)[C@]1(Cc2ccccc2)CCCCN(C(=O)[C@@H](Cc2c[nH]c3ccccc23)NC(=O)C(C)(C)N)C1
pEC50 (Rattus norvegicus): < 6.70

Compound: CCOC(=O)[C@@]1(Cc2ccccc2)CCCN(C(=O)[C@@H](Cc2c[nH]c3ccccc23)NC(=O)C(C)(C)N)C1
pEC50 (Rattus norvegicus): 7.66

Compound: CCNC(=O)[C@]1(Cc2ccccc2)CCCN(C(=O)[C@@H](Cc2c[nH]c3ccccc23)NC(=O)C(C)(C)N)C1
pEC50 (Rattus norvegicus): 9.10

Compound: CCOC(=O)[C@]1(Cc2ccccc2)CCCN(C(=O)[C@@H](CCCc2ccccc2)NC(=O)C(C)(C)N)C1
pEC50 (Rattus norvegicus): 8.10
